These results are taken from US20260132126A1, “IMIDAZOLE DERIVATIVES” (SANWA KAGAKU KENKYUSHO CO., LTD., priority 2022, published 2026).

As usually defined, the Emax is the size of the effect at its maximum, as opposed to the concentration needed. The term EC50 denotes the concentration at which the effect is half-maximal.

This assay deals with T1, human α1A adrenergic receptor (Homo sapiens, UniProt P35348).
T1 construct: host or cells: GeneBLAzer ADRA1A-NFAT-bla CHO-K1 cells
T1 sequence (P35348 1-466): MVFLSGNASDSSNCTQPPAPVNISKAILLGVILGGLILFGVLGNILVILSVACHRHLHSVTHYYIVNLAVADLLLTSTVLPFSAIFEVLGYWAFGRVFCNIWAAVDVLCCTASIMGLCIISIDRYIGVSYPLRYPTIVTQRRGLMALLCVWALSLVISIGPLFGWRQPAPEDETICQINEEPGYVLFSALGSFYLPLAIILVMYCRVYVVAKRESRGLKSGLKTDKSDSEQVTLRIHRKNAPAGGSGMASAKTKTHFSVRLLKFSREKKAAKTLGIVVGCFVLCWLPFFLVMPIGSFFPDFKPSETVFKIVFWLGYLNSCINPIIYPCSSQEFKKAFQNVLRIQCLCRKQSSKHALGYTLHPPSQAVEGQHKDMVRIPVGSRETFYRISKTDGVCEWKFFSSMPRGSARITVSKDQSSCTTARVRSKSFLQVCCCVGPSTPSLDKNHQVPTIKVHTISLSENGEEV
The experiment in a line: Ca2+ mobilization assay in human α1A adrenergic receptor-expressing cells. To be noted: for EC50: CHO-K1 cells expressing human α1A adrenergic receptor, Fluo-4 fluorescence, concentration giving 50% response of Emax, 4-parameter logistic regression; for Emax at 10 µM: % activation at 10 μmol/L test compound, 100 μmol/L norepinephrine = 100%, well without test compound = 0%. It is filed as cell-based. The arrangement: Emax: dose or concentration left out as unconfirmed. The protocol: CHO-K1 cells that highly express a human α1A adrenergic receptor (GeneBLAzer™ ADRA1A-NFAT-bla CHO-K1 Cells) were purchased from Thermo Fisher Scientific, Inc., and cultured according to the instructions.
The cultured human α1A adrenergic receptor-expressing cells were washed with D-PBS, then replaced with a loading buffer (2 μmol/L Fluo-4/AM, 1× PowerLoad, 2.5 mmol/L Probenecid-containing DMEM (high-glucose)) and incubated at 37° C. for 60 minutes in a 5% CO2 incubator. The cells were detached using 0.05% trypsin-EDTA solution, and suspended in an assay buffer ([…], 0.054 mol/L KCl, 1.8 mmol/L CaCl2), 1 mmol/L MgSO4, 0.11 mol/L glucose, 0.01 mol/L NaH2PO4·2H2O, […], pH 7.3) to be 500,000 cells/mL.
Test compounds were dissolved in dimethylsulfoxide, and diluted with an assay buffer containing 0.3% BSA. The final concentrations of the test compounds were set to fall within the range of 0.1 nmol/L to 10 μmol/L. As a reference compound, norepinephrine was set to have a final concentration within the range of 0.01 nmol/L to 100 μmol/L.
On a 384-well clear bottom black plate coated with poly-D-lysine (Corning Inc.), the above-described cell-suspended solution was dispersed in 40 μL each (20,000 cells/well) and allowed to stand for 10 minutes. The plate was transferred to a fluorescent imaging plate reader (FDSS7000, Hamamatsu Photonics K.K.), and measurements were started. After 1 minute from the start of the measurements, 20 μL of the test compound solutions or norepinephrine solution (total amount: 60 μL/well) was added to each well of the plate (final concentration: 0.1% BSA, 0.1% dimethylsulfoxide), and the temporal change in fluorescence intensity of Fluo-4 was further measured for 5 minutes (Ex 480 nm/Em 540 nm).
The normalized values (% activation) were used for subsequent analyses.
Emax values and EC50 values were calculated by creating a concentration-response curve of the test compounds using a 4-parameter logistic regression with XLFit, Emax value being defined as % activation of test compound at the concentration of 10 μmol/L, and EC50 value being defined as the concentration in which 50% response of the Emax values is shown.
Background: A change in cytosolic calcium serves as a functional read-out for many receptors and channels.

In turn, `Cc1ncncc1-c1ccccc1OCc1c[nH]cn1` [Example 76] displayed an Emax of 98% and an EC50 of 3.3 nM.
For `COc1cncc(-c2ccccc2OCc2c[nH]cn2)n1` [Example 77] the same measures were 92% and 0.6 nM.
In turn, `CC(Oc1ccccc1-c1cccs1)c1c[nH]cn1` (centres unmarked) [Example 78, 4-(1-(2-(Thiophen-2-yl)phenoxy)ethyl)-1H-imidazole] returned an Emax at 10 µM of 99% and an EC50 of 6.4 nM.
The like results for `c1cncc(-c2ccccc2SCc2c[nH]cn2)c1` [Example 80, 3-(2-(((1H-Imidazol-4-yl)methyl)thio)phenyl)pyridine] were, in that order, 101% and 3.4 nM.
The like results for `c1ccc(-c2cn[nH]c2)c(SCc2c[nH]cn2)c1` [Example 81] were, in that order, 106% and 9 nM.
Turning to `c1ccc(-c2ccsc2)c(SCc2c[nH]cn2)c1` [Example 82], the maximal response (Emax) at 10 µM turned out to be 104% and it took 6.9 nM to reach a half-maximal effect (EC50).
With `c1ccc(-c2cnco2)c(NCc2c[nH]cn2)c1` [compound 1, N-((1H-imidazol-4-yl)methyl)-2-(oxazol-5-yl) aniline, reference compound], the Emax at 10 µM was 91% and the EC50 was determined as 20 nM.
